Laboratory results published in patent publication EP4667483A1, “HUMAN TRANSFERRIN RECEPTOR-BINDING PEPTIDE” (JCR Pharmaceuticals Co., Ltd., priority 2023, dated 2024).
Numbered stars: 1 amine (or outer) side, 2 acyl side, 3 side chain; on linkers, the order of the positions; unused ones are H or OH. Bridge positions count the residues as written; N and C are the ends. Square brackets hold non-standard residues; d marks the D form. Side chains are listed from the residue outwards. Peptide text beside a SMILES is read from it. * marks the point of attachment. Trp(1-CH2COOH) = N[C@@H](Cc1cn(CC(=O)O)c2ccccc12)C(=O)O; CH2CON(CH2CH2)2NCH2COOH = O=C(O)CN1CCN(C(=O)C*)CC1; NMePhe(4-COOH) = CN[C@@H](Cc1ccc(C(=O)O)cc1)C(=O)O; X1 = O=C([C@H](Cc1cccc(C(=O)[*:3])c1)N[*:1])[*:2]; Nle(6-morpholino) = N[C@@H](CCCCN1CCOCC1)C(=O)O; Phe(3-COOH) = N[C@@H](Cc1cccc(C(=O)O)c1)C(=O)O; NMePhe(3-OMe) = CN[C@@H](Cc1cccc(OC)c1)C(=O)O; Trp(7-aza) = N[C@@H](Cc1c[nH]c2ncccc12)C(=O)O; NMePhe(3-Cl) = CN[C@@H](Cc1cccc(Cl)c1)C(=O)O; Piperazinyl(4-CH2COOH) = O=C(O)CN1CCN(*)CC1; 3Pal(6-NH2) = Nc1ccc(C[C@H](N)C(=O)O)cn1; Lys(N3) = [N-]=[N+]=NCCCC[C@H](N)C(=O)O; NMeY = CN[C@@H](Cc1ccc(O)cc1)C(=O)O; Nva(3-Et) = CCC(CC)[C@H](N)C(=O)O; 4Pal = N[C@@H](Cc1ccncc1)C(=O)O; PEG4 = NCCOCCOCCOCCOCCC(=O)O; Carboxymethyl = O=C(O)C*; CO = O=C([*:1])[*:2]

Experiments:
[1] = target: T1, human transferrin receptor (hTfR) (Homo sapiens, UniProt P02786); test: SPR measurement under pH 6.0 conditions (Biacore T200, NTA chip, immobilized hTfR); type: binding; conditions: read-out: hTfR SPR pH6.0 KD
T1 sequence (P02786 whole entry): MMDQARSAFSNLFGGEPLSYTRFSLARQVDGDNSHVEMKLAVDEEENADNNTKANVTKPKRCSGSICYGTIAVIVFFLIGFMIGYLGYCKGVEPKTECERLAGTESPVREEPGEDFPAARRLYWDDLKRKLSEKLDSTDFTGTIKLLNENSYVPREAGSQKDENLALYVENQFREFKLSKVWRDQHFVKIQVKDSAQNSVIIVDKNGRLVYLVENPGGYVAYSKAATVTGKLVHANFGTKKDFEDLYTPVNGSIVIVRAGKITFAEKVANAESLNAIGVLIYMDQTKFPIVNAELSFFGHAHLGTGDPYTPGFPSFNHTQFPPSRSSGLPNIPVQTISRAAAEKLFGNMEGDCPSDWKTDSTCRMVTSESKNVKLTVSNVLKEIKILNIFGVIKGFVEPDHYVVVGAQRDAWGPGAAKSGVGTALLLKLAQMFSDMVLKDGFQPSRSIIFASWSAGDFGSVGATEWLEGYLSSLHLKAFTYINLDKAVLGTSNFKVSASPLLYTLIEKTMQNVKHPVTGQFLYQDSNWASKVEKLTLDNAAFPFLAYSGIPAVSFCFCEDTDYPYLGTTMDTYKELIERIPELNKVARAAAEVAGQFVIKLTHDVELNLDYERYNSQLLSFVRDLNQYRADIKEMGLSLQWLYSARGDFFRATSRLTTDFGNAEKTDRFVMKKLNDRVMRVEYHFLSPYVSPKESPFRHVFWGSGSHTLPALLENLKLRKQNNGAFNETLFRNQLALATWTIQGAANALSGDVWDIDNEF

[2] = target: T1, human transferrin receptor (hTfR); test: SPR measurement under pH 7.4 conditions (Biacore T200, CM3 chip, hTfR captured by His Tag antibody); type: binding; conditions: read-out: hTfR SPR pH7.4 KD
[3] = SPR, pH 6.0, peptide with the linker named in the table
[4] = SPR, pH 7.4, peptide with the linker named in the table

Compound | Kd ([1]; pH 6.0, single-cycle kinetics) | Kd ([2]; pH 7.4, single-cycle kinetics) | also measured
CCC(CC)[C@@H]1NC(=O)[C@H](Cc2ccc(OCC(=O)O)cc2)NC(=O)[C@H](Cc2ccc(O)cc2)NC(=O)[C@H](CC(N)=O)NC(=O)[C@H](Cc2cn(CC(=O)O)c3ccccc23)NC(=O)[C@H](C(C)C)NC(=O)[C@H](Cc2cccc(Cl)c2)N(C)C(=O)[C@H](C(C)C)NC(=O)[C@H](C)NC(=O)CSC[C@@H](C(=O)NCCOCCOCCOCCOCCC(N)=O)NC(=O)[C@H](Cc2cccc(OC)c2)N(C)C(=O)[C@H](Cc2cccc(C(=O)O)c2)NC(=O)[C@H](CCCNC(=N)N)NC(=O)[C@H](CCC(N)=O)NC(=O)[C@H]([C@@H](C)CC)NC1=O [compound 95] ({CH2CO}-AV[NMePhe(3-Cl)]V[Trp(1-CH2COOH)]NYY(Carboxymethyl)[Nva(3-Et)]IQR[Phe(3-COOH)][NMePhe(3-OMe)]C[PEG4]-NH2; thioether N-15) |  |  | Kd [1, 3]: 67.9 nM; Kd [2, 4]: 10.6 nM
CC[C@H](C)[C@@H]1NC(=O)[C@H](Cc2ccc(OCC(=O)N3CCN(CC(=O)O)CC3)cc2)NC(=O)[C@H](Cc2ccc(O)cc2)NC(=O)[C@H](CC(N)=O)NC(=O)[C@H](Cc2c[nH]c3ncccc23)NC(=O)[C@H](C(C)C)NC(=O)[C@H](Cc2cccc(Cl)c2)N(C)C(=O)[C@H](C(C)C)NC(=O)[C@H](C)NC(=O)CSC[C@@H](C(=O)NCCOCCOCCOCCOCCC(N)=O)NC(=O)[C@H](Cc2ccc(O)cc2)N(C)C(=O)[C@H](Cc2ccncc2)NC(=O)[C@H](CCCNC(=N)N)NC(=O)[C@H](CCCCNC(=O)N2CCN(CC(=O)O)CC2)NC(=O)[C@H]([C@@H](C)CC)NC1=O [compound 18] | 30 nM | 1.88 nM | 
CC[C@H](C)[C@@H]1NC(=O)[C@H](Cc2ccc(OCC(=O)N3CCN(CC(=O)O)CC3)cc2)NC(=O)[C@H](Cc2ccc(O)cc2)NC(=O)[C@H](CC(N)=O)NC(=O)[C@H](Cc2cn(CC(=O)O)c3ccccc23)NC(=O)[C@H](C(C)C)NC(=O)[C@H](Cc2cccc(Cl)c2)N(C)C(=O)[C@H](C(C)C)NC(=O)[C@H](C)NC(=O)CSC[C@@H](C(=O)NCCOCCOCCOCCOCCC(N)=O)NC(=O)[C@H](Cc2ccc(O)cc2)N(C)C(=O)[C@H](Cc2ccncc2)NC(=O)[C@H](CCCCN2CCOCC2)NC(=O)[C@H](CCCCNC(=O)N2CCN(CC(=O)O)CC2)NC(=O)[C@H]([C@@H](C)CC)NC1=O [compound 33] ({CH2CO}-AV[NMePhe(3-Cl)]V[Trp(1-CH2COOH)]NYY(CH2CON(CH2CH2)2NCH2COOH)IIK([CO-Piperazinyl(4-CH2COOH)])[Nle(6-morpholino)][4Pal][NMeY]C[PEG4]-NH2; thioether N-15) | 22.1 nM | 8.5 nM | 
CC[C@H](C)[C@@H]1NC(=O)[C@H](Cc2ccc(OC)cc2)NC(=O)[C@H](Cc2ccc(N)nc2)NC(=O)[C@H](CC(N)=O)NC(=O)[C@H](Cc2c[nH]c3ncccc23)NC(=O)[C@H](C(C)C)NC(=O)[C@H](Cc2cccc(Cl)c2)N(C)C(=O)[C@H](C(C)C)NC(=O)[C@H](C)NC(=O)CSC[C@@H](C(=O)NCC(=O)N[C@@H](CCCCN=[N+]=[N-])C(N)=O)NC(=O)[C@H](Cc2ccc(O)cc2)N(C)C(=O)[C@H](Cc2ccncc2)NC(=O)[C@H](CCCCN2CCOCC2)NC(=O)[C@H](CCCCN2CCOCC2)NC(=O)[C@H]([C@@H](C)CC)NC1=O [compound 68] ({CH2CO}-AV[NMePhe(3-Cl)]V[Trp(7-aza)]N[3Pal(6-NH2)]Y(Me)II[Nle(6-morpholino)][Nle(6-morpholino)][4Pal][NMeY]CG[Lys(N3)]-NH2; thioether N-15) | 12.4 nM | 2.06 nM | 
CC[C@H](C)[C@@H]1NC(=O)[C@H](Cc2ccc(OCC(=O)O)cc2)NC(=O)[C@H](Cc2ccc(O)cc2)NC(=O)[C@H](CC(N)=O)NC(=O)[C@H](Cc2c[nH]c3ccccc23)N(C)C(=O)[C@H](C(C)C)NC(=O)[C@H](Cc2cccc(Cl)c2)N(C)C(=O)[C@H](C(C)C)NC(=O)[C@H](C)NC(=O)CSC[C@@H](C(=O)NCCOCCOCCOCCOCCC(N)=O)NC(=O)[C@H](Cc2ccc(O)cc2)N(C)C(=O)[C@H](Cc2cccc(C(=O)O)c2)NC(=O)[C@H](CCCNC(=N)N)NC(=O)[C@H](CCCCN)NC(=O)[C@H]([C@@H](C)CC)NC1=O [compound 177] | 2.26 nM | 0.134 nM | 
CC[C@H](C)[C@@H]1NC(=O)[C@H](Cc2ccc(OCC(=O)NC[C@H](O)[C@@H](O)[C@H](O)[C@H](O)CO)cc2)NC(=O)[C@H](Cc2ccc(O)cc2)NC(=O)[C@H](CC(N)=O)NC(=O)[C@H](Cc2c[nH]c3ncccc23)NC(=O)[C@H](C(C)C)NC(=O)[C@H](Cc2cccc(Cl)c2)N(C)C(=O)[C@H](C(C)C)NC(=O)[C@H](C)NC(=O)CSC[C@@H](C(=O)NCCOCCOCCOCCOCCC(N)=O)NC(=O)[C@H](Cc2ccc(O)cc2)N(C)C(=O)[C@H](Cc2ccncc2)NC(=O)[C@H](CCCCN2CCOCC2)NC(=O)[C@H](CCC(=O)NC[C@H](O)[C@@H](O)[C@H](O)[C@H](O)CO)NC(=O)[C@H]([C@@H](C)CC)NC1=O [compound 27] | 15.4 nM | 3.03 nM | 
CC[C@H](C)[C@@H]1NC(=O)[C@H](Cc2ccc(OCC(=O)N3CCN(CC(=O)O)CC3)cc2)NC(=O)[C@H](Cc2ccc(O)cc2)NC(=O)[C@H](CC(N)=O)NC(=O)[C@H](Cc2cn(CC(=O)O)c3ccccc23)NC(=O)[C@H](C(C)C)NC(=O)[C@H](Cc2cccc(Cl)c2)N(C)C(=O)[C@H](C(C)C)NC(=O)[C@H](C)NC(=O)CSC[C@@H](C(=O)NCCOCCOCCOCCOCCC(N)=O)NC(=O)[C@H](Cc2ccc(O)cc2)N(C)C(=O)[C@H](Cc2cccc(C(=O)O)c2)NC(=O)[C@H](CCCCN2CCOCC2)NC(=O)[C@H](CCC(N)=O)NC(=O)[C@H]([C@@H](C)CC)NC1=O [compound 35] ({CH2CO}-AV[NMePhe(3-Cl)]V[Trp(1-CH2COOH)]NYY(CH2CON(CH2CH2)2NCH2COOH)IIQ[Nle(6-morpholino)][Phe(3-COOH)][NMeY]C[PEG4]-NH2; thioether N-15) | 37 nM | 1.74 nM | 
CC[C@H](C)[C@@H]1NC(=O)[C@H](Cc2ccc(OCC(=O)NC[C@H](O)[C@@H](O)[C@H](O)[C@H](O)CO)cc2)NC(=O)[C@H](Cc2ccc(O)cc2)NC(=O)[C@H](CC(N)=O)NC(=O)[C@H](Cc2c[nH]c3ncccc23)NC(=O)[C@H](C(C)C)NC(=O)[C@H](Cc2cccc(Cl)c2)N(C)C(=O)[C@H](C(C)C)NC(=O)[C@H](C)NC(=O)CSC[C@@H](C(=O)NCCOCCOCCOCCOCCC(N)=O)NC(=O)[C@H](Cc2ccc(O)cc2)N(C)C(=O)[C@H](Cc2ccncc2)NC(=O)[C@H](CCCNC(=N)N)NC(=O)[C@H](CCC(=O)NC[C@H](O)[C@@H](O)[C@H](O)[C@H](O)CO)NC(=O)[C@H]([C@@H](C)CC)NC1=O [compound 26] | 13.4 nM | 1.73 nM | 
CCC(CC)[C@@H]1NC(=O)[C@H](Cc2ccc(OC)cc2)NC(=O)[C@H](Cc2ccc(N)nc2)NC(=O)[C@H](CC(N)=O)NC(=O)[C@H](Cc2cnc3ccccn23)NC(=O)[C@H](C(C)C)NC(=O)[C@H](Cc2cccc(Cl)c2)N(C)C(=O)[C@H](C(C)C)NC(=O)[C@H](C)NC(=O)CSC[C@@H](C(=O)NCC(=O)N[C@H](CCC(=O)O)C(=O)N[C@H](CCC(=O)O)C(=O)N[C@H](CCC(=O)O)C(=O)N[C@H](CO)C(=O)N[C@H](CO)C(=O)N[C@@H](CCCCN=[N+]=[N-])C(N)=O)NC(=O)[C@H](Cc2ccc(C(=O)O)cc2)N(C)C(=O)[C@H](Cc2ccncc2)NC(=O)[C@H](CCCNC(=N)N)NC(=O)[C@H](CCCNC(=N)N)NC(=O)[C@H]([C@@H](C)CC)NC1=O [compound 184] |  |  | Kd ([1]; SPR, pH 6.0, Table 1-3-2-2): 121 nM; Kd ([2]; SPR, pH 7.4, Table 1-3-2-2): 136 nM
CCC(CC)[C@@H]1NC(=O)[C@H](Cc2ccc(OCC(=O)O)cc2)NC(=O)[C@H](Cc2ccc(O)cc2)NC(=O)[C@H](CC(N)=O)NC(=O)[C@H](Cc2c[nH]c3ncccc23)NC(=O)[C@H](C(C)C)NC(=O)[C@H](Cc2cccc(Cl)c2)N(C)C(=O)[C@H](C(C)C)NC(=O)[C@H](C)NC(=O)CSC[C@@H](C(=O)NCCOCCOCCOCCOCCC(N)=O)NC(=O)[C@H](Cc2ccc(C(=O)O)cc2)N(C)C(=O)[C@H](Cc2cccc(C(=O)O)c2)NC(=O)[C@H](CCCNC(=N)N)NC(=O)[C@H](CCC(N)=O)NC(=O)[C@H]([C@@H](C)CC)NC1=O [compound 108] ({CH2CO}-AV[NMePhe(3-Cl)]V[Trp(7-aza)]NYY(Carboxymethyl)[Nva(3-Et)]IQR[Phe(3-COOH)][NMePhe(4-COOH)]C[PEG4]-NH2; thioether N-15) |  |  | Kd [1, 3]: 36.1 nM; Kd [2, 4]: 13.9 nM
CC[C@H](C)[C@@H]1NC(=O)[C@H](Cc2ccc(OC)cc2)NC(=O)[C@H](Cc2ccc(N)nc2)NC(=O)[C@H](CC(N)=O)NC(=O)[C@H](Cc2c[nH]c3ccccc23)NC(=O)[C@H](C(C)C)NC(=O)[C@H](Cc2cccc(Cl)c2)N(C)C(=O)[C@H](C(C)C)NC(=O)[C@H](C)NC(=O)CSC[C@@H](C(=O)NCC(=O)NCC(=O)NCC(=O)NCC(=O)N[C@@H](CO)C(=O)N[C@@H](CO)C(=O)N[C@@H](CCCCN=[N+]=[N-])C(N)=O)NC(=O)[C@H](Cc2ccc(O)cc2)N(C)C(=O)[C@H](Cc2ccncc2)NC(=O)[C@H](CCCNC(=N)N)NC(=O)[C@H](CCCNC(=N)N)NC(=O)[C@H]([C@@H](C)CC)NC1=O [compound 191] |  |  | Kd ([1]; SPR, pH 6.0, Table 1-3-2-2): 3.82 nM; Kd ([2]; SPR, pH 7.4, Table 1-3-2-2): 0.89 nM
CCC(CC)[C@@H]1NC(=O)[C@H](Cc2ccc(OCC(=O)O)cc2)NC(=O)[C@H](Cc2ccc(N)nc2)NC(=O)[C@H](CC(N)=O)NC(=O)[C@H](Cc2c[nH]c3ncccc23)NC(=O)[C@H](C(C)C)NC(=O)[C@H](Cc2cccc(Cl)c2)N(C)C(=O)[C@H](C(C)C)NC(=O)[C@H](C)NC(=O)CSC[C@@H](C(=O)NCCOCCOCCOCCOCCC(N)=O)NC(=O)[C@H](Cc2ccc(O)cc2)N(C)C(=O)[C@H](Cc2cccc(C(=O)NCCOCCOCCOCCOCCC(=O)O)c2)NC(=O)[C@H](CCCNC(=N)N)NC(=O)[C@H](CCC(N)=O)NC(=O)[C@H]([C@@H](C)CC)NC1=O [compound 44] ({CH2CO}-AV[NMePhe(3-Cl)]V[Trp(7-aza)]N[3Pal(6-NH2)]Y(Carboxymethyl)[Nva(3-Et)]IQR[X1](PEG4)[NMeY]C[PEG4]-NH2; thioether N-15) | 339 nM | 36.6 nM | 
